Here are results for 39 molecules from US10098887B2, “Antiviral compounds and methods of use thereof” (Trana Discovery, Inc., priority 2010, dated 2018).

One assay has as its system interaction between Human tRNA^Lys3 and HIV-1 genomic RNA. Nature of the assay: Biochemical HIV-1 tRNA Inhibition Assay (AlphaScreen). As to conditions: active compounds from high throughput screening, prioritized on IC50. Also on record: key: +: showing some activity; ++: intermediate activity; +++: the highest activity. It counts as binding. The text has this:
The methods for detecting binding of the target RNA to the tRNA or the inhibition of such binding may be performed using any method for such detection. For example, the AlphaScreen® assay (Packard Instrument Company, Meriden, Conn.). AlphaScreen® technology is an “Amplified Luminescent Proximity Homogeneous Assay” method utilizing latex microbeads (250 nm diameter) containing a photosensitizer (donor beads), or chemiluminescent groups and fluorescent acceptor molecules (acceptor beads). Upon illumination with laser light at 680 nm, the photosensitizer in the donor bead converts ambient oxygen to singlet-state oxygen. The excited singlet-state oxygen molecules diffuse approximately 250 nm (one bead diameter) before rapidly decaying. If the acceptor bead is in close proximity to the donor bead (i.e., by virtue of the interaction of the target RNA and tRNA fragment), the singlet-state oxygen molecules reacts with chemiluminescent groups in the acceptor beads, which immediately transfer energy to fluorescent acceptors in the same bead. These fluorescent acceptors shift the emission wavelength to 520-620 nm, resulting in a detectable signal. Antagonists of the interaction of the target RNA with the tRNA fragment will thus inhibit the shift in emission wavelength, whereas agonists of this interaction would enhance it.
In the AlphaScreen configuration (FIG. 3) the assay is done in solution using the same RNA as the immobilization assay. The donor and acceptor beads are bound to their respective RNA's. During the screening the RNAs and test drugs/small molecules are incubated together and formation of the complex is measured using the AlphaScreen detection conditions. Utilization of the AlphaScreen assay may allow for the assay to be run at a lower RNA concentration at room temperature, and increase the stability of the complex.
HIV-1 has evolved to use Human tRNA^Lys3 as a primer for initiation of reverse transcription. Therefore, the interaction between tRNA^Lys3 and viral genomic RNA represents a potential novel target for HIV-1 drug development. Based on this hypothesis, a biochemical assay to identify inhibitors of the interaction between Human tRNA^Lys3 and HIV-1 genomic RNA was developed by TRANA Discovery and transferred to Southern Research Institute for high-throughput screening. This assay was developed as a homogeneous amplified luminescent proximity assay using AlphaScreen™ reagents from PerkinElmer. Based on this assay technology, the AlphaScreen™ luminescent signal serves as a mechanism for detecting the interaction between RNA molecules that represent Human tRNA^Lys3 and HIV-1 genomic RNA. The inhibition of the interaction between these RNA molecules by test compounds is detected as a decrease in the AlphaScreen™ luminescent signal.
A preliminary 15,000 compound screen (NINDS Diversity Set) was previously completed and the results were reported through NIAID contract N01-AI-70042. For the results described herein, a 101,000 compound library that was purchased from ChemBridge for the NIAID TAACF program was used. This library was carefully selected for diversity and minimal similarity to the 100,000 compound NINDS library, which is also planned to be screened using the TRANA Discovery Biochemical HIV-1 tRNA Inhibition Assay. The compounds were screened at a concentration of 12.5 μg/mL (first 3 batches) or 25 μg/mL (fourth and final batch).
As to `O=C1C(=Cc2ccc(O)c(O)c2)SC(=S)N1c1ccccc1` [5-(3,4-dihydroxybenzylidene)-3-phenyl-2-thioxo-1,3-thiazolidin-4-one], the Activity result is reported as “+”.

Turning to `O=[N+]([O-])c1ccc(Nc2ccc(O)cc2)c2nonc12` [4-[(7-nitro-2,1,3-benzoxadiazol-4-yl)amino]phenol], the Activity result is recorded as “++”.

`Cc1ccccc1NC1=C(N)C(=O)c2ccccc2C1=O` [2-amino-3-[(2-methylphenyl)amino]naphthoquinone]: the Activity result is recorded as “+”.

`CCOc1nc(NC(=N)N)nc2c(C)cccc12` [N-(4-ethoxy-8-methyl-2-quinazolinyl)guanidine]: the Activity entry is “++”.

On to `O=C1C(Nc2cccc(Cl)c2)=C(N2CCOCC2)C(=O)c2ccccc21` [2-[(3-chlorophenyl)amino]-3-(4-morpholinyl)naphthoquinone], for which the Activity entry is on record as “++”.

As for `Cc1ccccc1NC1=C(N2CCOCC2)C(=O)c2ccccc2C1=O` [2-[(2-methylphenyl)amino]-3-(4-morpholinyl)naphthoquinone], the Activity result was “++”.

On to `CC(=O)N1c2ccc(C)cc2-c2c(ssc2=S)C1(C)C` [5-acetyl-4,4,8-trimethyl-4,5-dihydro-1H[1,2]dithiolo[3,4-c]quinoline-1-thione], for which the Activity result is listed as “+”.

On to `CCC(=NNc1ccccc1[N+](=O)[O-])c1ccc(O)cc1` [1-(4-hydroxyphenyl)-1-propanone (2-nitrophenyl)hydrazone], for which the Activity entry is “++”.

Take `COc1cccc(NC2=C(N3CCOCC3)C(=O)c3ccccc3C2=O)c1` [2-[(3-methoxyphenyl)amino]-3-(4-morpholinyl)naphthoquinone]: the Activity result is recorded as “++”.

As to `COc1cccc(NC2=C(N3CCCCC3)C(=O)c3ccccc3C2=O)c1` [2-[(3-methoxyphenyl)amino]-3-(1-piperidinyl)naphthoquinone], the Activity entry was “++”.

Regarding `Cc1cccc(NC2=C(N3CCCC3)C(=O)c3ccccc3C2=O)c1` [2-[(3-methylphenyl)amino]-3-(1-pyrrolidinyl)naphthoquinone], the Activity entry is “++”.

Turning to `O=C(NN1C(=O)C(=Cc2ccc(O)c(O)c2)SC1=S)c1ccccc1Br` [2-bromo-N-[5-(3,4-dihydroxybenzylidene)-4-oxo-2-thioxo-1,3-thiazolidin-3-yl]benzamide], the Activity entry is recorded as “+”.

Consider `CC(=NNc1ccccc1[N+](=O)[O-])c1ccco1` [1-(2-furyl)ethanone (2-nitrophenyl)hydrazone], for which the Activity result is listed as “+”.

`Cc1ccc(C=NNc2ccccc2[N+](=O)[O-])o1` [5-methyl-2-furaldehyde (2-nitrophenyl)hydrazone]: the Activity entry is “+”.

Take `C=CCN1C(=O)C(=Cc2cc(Cl)cc(Cl)c2O)SC1=S` [3-allyl-5-(3,5-dichloro-2-hydroxybenzylidene)-2-thioxo-1,3-thiazolidin-4-one]: the Activity result is given as “+”.

For `CN(CCN(C)N=Cc1cccc([N+](=O)[O-])c1)N=Cc1cccc([N+](=O)[O-])c1` [3-nitrobenzaldehyde 1,2-ethanediyl(methylhydrazone)], the Activity entry is on record as “+”.

Take `COC(=O)c1ccc(NC2=C(N3CCCC3)C(=O)c3ccccc3C2=O)cc1` [methyl 4-{[1,4-dioxo-3-(1-pyrrolidinyl)-1,4-dihydro-2-naphthalenyl]amino}benzoate]: the Activity result is listed as “++”.

As for `CCCCOc1cccc(C(=O)NC(=S)Nc2ccc(N(C)C)cc2)c1` [3-butoxy-N-({[4-(dimethylamino)phenyl]amino}carbonothioyl)benzamide], the Activity entry is on record as “+”.

Take `O=[N+]([O-])c1ccccc1NN=Cc1ccc(O)c(O)c1` [3,4-dihydroxybenzaldehyde (2-nitrophenyl)hydrazone]: the Activity entry is “++”.

As for `CCOc1ccc(Nc2ccc([N+](=O)[O-])c3nonc23)cc1` [N-(4-ethoxyphenyl)-7-nitro-2,1,3-benzoxadiazol-4-amine], the Activity result is “+”.

Turning to `Cc1[nH]c(=O)[nH]c1C(=O)CCCCC(=O)O` [6-(5-methyl-2-oxo-2,3-dihydro-1H-imidazol-4-yl)-6-oxohexanoic acid], the Activity result is on record as “+++”.

`CCOC(=O)C(C(=O)c1ccccc1)C1=CC(=O)C(=O)c2ccc(Br)cc21` (stereo not drawn) [ethyl 2-(7-bromo-3,4-dioxo-3,4-dihydro-1-naphthalenyl)-3-oxo-3-phenylpropanoate]: the Activity result is listed as “+”.

For the molecule `Nc1c(Cl)cc(N2CCCC2)c2c1C(=O)c1ccccc1C2=O` [1-amino-2-chloro-4-(1-pyrrolidinyl)anthra-9,10-quinone], the Activity entry is on record as “+”.

Take `COc1ccccc1N1CCN(CC=Cc2ccc(N(C)C)cc2)CC1` [(4-{3-[4-(2-methoxyphenyl)-1-piperazinyl]-1-propen-1-yl}phenyl)dimethylamine]: the Activity result is “+”.

`O=C1C(Nc2cc(F)cc(F)c2)=C(N2CCOCC2)C(=O)c2ccccc21` [2-[(3,5-difluorophenyl)amino]-3-(4-morpholinyl)naphthoquinone]: the Activity result is reported as “++”.

In the case of `COc1ccc2c(C)nc(NC(=N)N)nc2c1` [N-(7-methoxy-4-methyl-2-quinazolinyl)guanidine], the Activity result is recorded as “+”.

On to `COc1ccc(N2CCN(c3cc(Cl)ccc3[N+](=O)[O-])CC2)cc1` [1-(5-chloro-2-nitrophenyl)-4-(4-methoxyphenyl)piperazine], for which the Activity result is reported as “+”.

Turning to `Cc1ccc(N2CCCCC2)c2c1C(=O)c1ccccc1C2=O` [1-methyl-4-(1-piperidinyl)anthra-9,10-quinone], the Activity result is recorded as “++”.

For `CCN(CC)CCN(CC)Cc1ccc(N(C)C)cc1` [N-[4-(dimethylamino)benzyl]-N,N′,N′-triethyl-1,2-ethanediamine], the Activity entry is given as “+”.

As to `CCOc1ccc2c(c1)-c1c(s[s+]c1SC)C(C)(C)N2.[Cl-]` [8-ethoxy-4,4-dimethyl-1-(methylthio)-4,5-dihydro[1,2]dithiolo[3,4-c]quinolin-2-ium chloride], the Activity result is listed as “++”.

For the molecule `O=C1C(Nc2cccc(O)c2)=C(N2CCCCC2)C(=O)c2ccccc21` [2-[(3-hydroxyphenyl)amino]-3-(1-piperidinyl)naphthoquinone], the Activity result is listed as “+”.

As to `O=C1NC(=S)N(c2cccc(Cl)c2)C(=O)C1=Cc1ccco1` [1-(3-chlorophenyl)-5-(2-furylmethylene)-2-thioxodihydro-4,6(1H,5H)-pyrimidinedione], the Activity entry was “+”.

System in a further assay: not listed separately
Nature of the assay: assays described herein (not specified).
Conditions: not given
For the molecule `CCOc1ccc(C(=O)c2ccc(N3CC(C)OC(C)C3)c([N+](=O)[O-])c2)cc1` (stereo not drawn) [Compound 102, [4-(2,6-dimethyl-4-morpholinyl)-3-nitrophenyl](4-ethoxyphenyl)methanone], the “active in the assays described herein” value is “active”.

Turning to `CN(C)c1ccc2sc(S)nc2c1` [Compound 95, 5-(dimethylamino)-1,3-benzothiazole-2-thiol], the “active in the assays described herein” value was “active”.

Take `CCc1ccc(C2=CC(=O)c3ccccc3C2=O)cc1` [Compound 26, 2-(4-ethylphenyl)naphthoquinone]: the “active in the assays described herein” value is listed as “active”.

`CCCOc1ccc(C2Oc3ccc(Br)cc3C=C2[N+](=O)[O-])cc1OC` (stereo not drawn) [Compound 59, 6-bromo-2-(3-methoxy-4-propoxyphenyl)-3-nitro-2H-chromene]: the “active in the assays described herein” value is given as “active”.

Regarding `Oc1ccc(C(c2c[nH]c3ccccc23)c2c[nH]c3ccccc23)cc1O` [Compound 86, 4-(di-1H-indol-3-ylmethyl)-1,2-benzenediol], the “active in the assays described herein” value is reported as “active”.

For the molecule `O=c1cc2oc3cc(O)c(O)cc3c(-c3ccc([N+](=O)[O-])o3)c-2cc1O` [Compound 38, 2,6,7-trihydroxy-9-(5-nitro-2-furyl)-3H-xanthen-3-one], the “active in the assays described herein” value is “active”.

`O=C(O)CCCCC1SCC2NC(=O)NC21` (stereo not drawn) [Compound 8, 5-(2-oxohexahydro-1H-thieno[3,4-d]imidazol-4-yl)pentanoic acid]: the “active in the assays described herein” value is “active”.
